Laboratory results taken from US20220326125A1, “BIOLOGICAL TISSUE STAINING REAGENT, BIOLOGICAL TISSUE STAINING KIT AND BIOLOGICAL TISSUE STAINING METHOD” (CUBICStars, Inc., priority 2019, published 2022).

Legend:
[1] = test system: defatted column of the cerebral cortex area of pig brain; experiment: Evaluation of antibody penetration efficiency (peak-bottom ratio), anti-synaptophysin antibody; settings: 2.5% by weight in Immunostaining Buffer E vs distilled water, 32° C., 1 day
Experimental: After the defatting treatment, the sample was washed with PBS, and soaked in Immunostaining Buffer E that was mixed with a mouse monoclonal anti-synaptophysin antibody (manufactured by Medical & Biological Laboratories Co., Ltd.; #D073-3; 20 μg/mL) and Fab-anti-mouse IgG1 labeled with Alexa 594 (added such that the weight ratio to the anti-synaptophysin antibody was about 1:1) and further supplemented with 2.5% by weight Quadrol or the same amount of distilled water. The sample was stained at 32° C. for 1 day. After the staining, the sample was washed with PB-Triton and PB, and a frozen section in the central portion of the sample was prepared.
FIGS. 18A and B show images of the frozen sections of the samples stained with Immunostaining Buffer E to which distilled water or Quadrol, respectively, was added. […] For quantification, a representative area showing almost uniform staining of the left and right sides of the column was selected using a micrographic image, and a brightness-value graph was prepared. In the graph, the ratio (peak-bottom ratio) of the maximum brightness (peak) in the left and right to the minimum brightness (bottom) in the sample was high in the sample to which Quadrol was not added. […] Thus, using the peak-bottom ratio as a quantitative index of penetrability of an antibody into a tissue, a search was carried out for compounds as follows. […]

[2] = test system: defatted mouse cerebral hemisphere; experiment: 3D immunostaining with combinations of additives; settings: Immunostaining Buffer E; antibodies against synaptophysin, Gad67, Dat or Th; 32° C., 3 to 4 days
From the text: Fab-anti-mouse or rabbit IgG against each primary antibody, labeled with Alexa 594 (manufactured by Jackson ImmunoResearch laboratories; Fab-anti-mouse IgG1-[…] (#115-587-185), Fab-anti-mouse IgG2a-[…] (#115-587-186), or Fab-anti-rabbit IgG-[…] (#111-587-008), added such that the weight ratio to each primary antibody was about 1:0.75); and predetermined concentrations of additives (two or three selected from #0854, #1086, and #0609 described in FIG. 1A and #0146 described in FIG. 1B).

CC(O)CN(CCN(CC(C)O)CC(C)O)CC(C)O (centres unmarked) [Quadrol, N,N,N′,N′-tetrakis(2-hydroxypropyl)ethylenediamine]
penetration of the antibody [1]: penetration of the antibody was effectively increased

CN(C)CCOCCO [#0146, 2-[2-(Dimethylamino)ethoxy]ethanol]
penetration-promoting effect for the antibodies / staining performance inside the sample [2]: even stronger penetration-promoting effect
